Source: patent US20250281480A1, “PHARMACEUTICAL DRY POWDER INHALATION FORMULATION” (Bayer Aktiengesellschaft, priority 2021, published 2025)

Experiments:
PAH-minipig = PAH-minipig model, inhaled application on top of PAH standard-of-care; format: in vivo; conditions: bosentan, sildenafil, Ilomedin, riociguat
plasma proteins [1] = assay: Protein binding via Transil assay, rat plasma; format: in vitro ADME
Source text: (§1) The distribution of a test substance between Transil® (phosphatidylcholine lipid bilayers immobilized on silica beads) and plasma is a characteristic feature of any pharmaceutical compound and is dependent on its extent of binding to plasma proteins. By comparing the distribution between Transil® and buffer with the distribution between Transil® and plasma of any species of interest, the unbound fraction in the plasma of the respective animal species can be calculated in vitro. The respective plasma and buffer concentrations were determined via a radioactivity analysis. A detailed description of the method and its validation was published by Schuhmacher et al. (2).

plasma proteins [2] = assay: Protein binding via Transil assay, dog plasma; format: in vitro ADME
Source text: as §1

[3] = Deposited lung dose with absorbing filters and prediction of human dose (PAH minipig model); format: in vivo
Description: The anesthetized thromboxane A2 challenged PAH-minipig model (see experimental part E-1) is considered to be the most relevant and sensitive model for the prediction of the human minimal effective and effective doses (MED, ED). To determine effective LDs, experiments were repeated with the difference that absorbing filters were attached at the end of the tubes to determine the deposited lung dose. […] Assuming a minimal effective ND of 3 μg/kg (5% reduction in PAP) the minimal effective deposited LD is considered as 0.15 μg/kg (see FIG. 1).
The nominal doses of 3, 10, 30 and 100 μg/kg of the minipig model were multiplied by the filter deposition factor of 5% resulting in 0.15, 0.5, 1.5 and 5 μg/kg lung deposited doses in the minipig. These values were multiplied by 60 kg to achieve the lung dose in humans. Thus, the FPD reflecting the PAP reduction for a 60 kg human are calculated to be 9, 30, 90 and 300 μg.
Thus, via a direct up-scaling from minipig, the predictive MED (5% PAP reduction) for a human based on a 60 kg body weight is calculated to be 9 μg LDD, not considering protein binding within the respiratory tract. As a surrogate for unbound concentrations, which are the likely active concentrations in the lung, we considered respective differences in fractions unbound in plasma of minipig and human. This consideration results in a minimum effective lung dose (LD) for a 60 kg participant of 41 μg LDD for the assumed 5% reduction on PAP. Consequently, the predictive minimal human effective dose is in the range from 9 μg LDD to 41 μg LDD based on a 60 kg body weight (see FIG. 2).
In order to generate a human dose estimate, experiments in the PAH minipig model for comparative example 11 were repeated with the difference that absorbing filters were attached at the end of the tubes to […] determine the deposited lung dose. […] The arithmetic mean of the aerosol fraction deposited on the filters is 5% based on all results of the filter experiments, resulting in relative lung deposited doses of about 0.15 μg/kg (3 μg/kg nominal dose), 0.5 μg/kg (10 μg/kg nominal dose), 1.5 μg/kg (30 μg/kg nominal dose) and 5 μg/kg (100 μg/kg nominal dose). Assuming a minimal effective nominal dose of 3 μg/kg for a 5% reduction in PAP and a mean nebulization efficiency of 5%, the minimal effective deposited lung dose is considered as 0.15 μg/kg based on the PAH minipig model. Therefore, for a human patient of 60 kg body weight a minimal effective lung deposited dose of 9-41 μg, depending on whether or not an effect of different protein binding (see table 37) is postulated. Considering 100 μg/kg as effective dose in the minipig model, 300-1370 μg lung deposited dose is postulated as effective dose, again depending on the consideration of different interspecies protein binding.

[4] = test system: patients with PAH or CTEPH; assay: Phase 1b, inhaled single doses in patients with PAH or CTEPH: pulmonary vascular resistance (PVR), mPAP by right heart catheterization; format: in vivo, human
Description: Patients with PAH or CTEPH were treated in a clinical phase 1b study with escalating orally inhaled single doses* of 240 μg (2 capsules of 120 μg), 480 μg, 1000 μg, 2000 (2 capsules of 1000 μg) or […] (4 capsules of 1000 μg) of a dry powder of example 4 (see under C-1, e.g. tables 17 and 20), inserted into a handheld inhalation device, inhaled by deep inhalative breath into the deep parts of the lung. (*single dose means the administration of one dosage form/capsule as well as administration of two or more dosage forms/capsules simultaneously or consecutively within a short time period). The included patients had no background treatment with standard of care (SoC) medication for PAH or CTEPH (such as endothelin antagonists, prostanoids, phosphodiesterase type 5 inhibitor or soluble guanylate cyclase stimulators). Patients in this study underwent invasive right heart catheterization as medically indicated routine diagnostic. Primary objective of the study was to investigate the peak percent reduction from baseline in PVR. Patients had to have a baseline pulmonary artery pressure (mPAP) of ≥25 mmHg and a PVR of ≥400 dyn·sec·cm^−5 (5 Wood Units) and were not to show vaso-responsiveness to initial iNO inhalation testing to be included in the per protocol analysis. Plasma concentrations (pharmacokinetics) of the administered drug at several time points after administration were measured and safety and tolerability was assessed.
The study is divided into two parts, Part A and Part B. In Part A escalating aforementioned single doses were administered to patients without background treatment with standard of care (SoC) medication for PAH or CTEPH (such as endothelin antagonists, prostanoids, phosphodiesterase type 5 inhibitor or soluble guanylate cyclase stimulators). In Part B, after finalization of Part A, a selected dose from Part A will be tested in further patients without background SoC treatment (group 1) and additionally in patients on monotherapy with SoC (group 2) and on dual combination therapy with SoC (group 3).
The PVR is a derived parameter from parameters directly measured during the right heart catheterization procedure. The direct parameters included in the calculation are: mean pulmonary arterial pressure [mmHg](mPAP), pulmonary capillary wedge pressure [mmHg](PCWP), and cardiac output [1/min](CO). The PVR is calculated according to the formula: PVR [dyn*sec*cm^−5]=80*(mPAP−PCWP)/CO.

SMILES | effect on PAP on top of PAH standard-of-care (PAH-minipig) | fraction unbound, lower than comparative example 1 (plasma proteins [1]) [times lower] | fraction unbound, lower than comparative example 1 (plasma proteins [2]) [times lower] | Relative lung deposited dose in minipig ([3]; 3 μg/kg nominal dose) [µg/kg] | Relative lung deposited dose in minipig ([3]; 10 μg/kg nominal dose) [µg/kg] | Relative lung deposited dose in minipig ([3]; 30 μg/kg nominal dose) [µg/kg] | Relative lung deposited dose in minipig ([3]; 100 μg/kg nominal dose) [µg/kg] | mean pulmonary arterial pressure (mPAP), mean ± SD ([4]; 1000 μg inhaled single dose, N = 4, 0 D 03 H 00 M) [mmHg] | enduring mean change of PVR from baseline ([4]; 2000 μg group) | enduring mean change of PVR from baseline ([4]; 4000 μg group) | effect sustained with no decrease in response until end of measurement period ([4]; PVR after single inhaled dose) [h] | tolerability ([4]; including the highest dose of 4000 μg)
O=C(O)c1ccc(CCN(CCc2ccccc2OCc2ccc(-c3ccc(C(F)(F)F)cc3)cc2Cl)[C@H]2CCCc3nc(C(=O)O)ccc32)cc1 [Comparative example 11, (5S)-5-{[2-(4-carboxyphenyl)ethyl][2-(2-{[3-chloro-4′-(trifluoromethyl)[biphenyl]-4-yl]methoxy}phenyl)ethyl]amino}-5,6,7,8-tetrahydroquinoline-2-carboxylic Acid] | selectively decreased elevated PAP | 1.6 | 10 | 0.15 | 0.50 | 1.5 | 5.0 | – | – | – | – | –
O=C(O)c1ccc(CCN(CCc2ccccc2OCc2ccc(-c3ccc(C(F)(F)F)cc3)cc2Cl)[C@H]2CCCc3nc(C(=O)O)ccc32)cc1 [Example 4, (5S)—{[2-(4-Carboxyphenyl)ethyl][2-(2-{[3-chloro-4′-(trifluoromethyl)biphenyl-4-yl]methoxy}phenyl)-ethyl]amino}-5,6,7,8-tetrahydroquinoline-2-carboxylic Acid as Monohydrate I] | – | – | – | – | – | – | – | 34.0 ± 11.6 | approximately −30% | approximately −30% | ≥ 3 | good tolerability
